Settings: 101.33 kPa, Liquid; for speed of sound: Sing-around technique in a fixed-path interferometer; for mass density: Vibrating tube method

CC(=O)[O-].C[NH2+]CCO [N-methyl-2-hydroxyethylammonium acetate]
Settings | mass density [kg/m3] | speed of sound [m/s] | viscosity [mPa·s]
278.15 K | 1112.83 | 1848.3 | –
278.4 K | 1112.68 | 1847.6 | –
278.65 K | 1112.54 | 1846.8 | –
278.9 K | 1112.38 | 1846.1 | –
279.15 K | 1112.23 | 1845.4 | –
279.4 K | 1112.08 | 1844.7 | –
279.65 K | 1111.93 | 1843.9 | –
279.9 K | 1111.78 | 1843.2 | –
280.15 K | 1111.63 | 1842.5 | –
280.4 K | 1111.48 | 1841.8 | –
280.65 K | 1111.33 | 1841 | –
280.9 K | 1111.18 | 1840.3 | –
281.15 K | 1111.03 | 1839.6 | –
281.4 K | 1110.88 | 1838.9 | –
281.65 K | 1110.74 | 1838.2 | –
281.9 K | 1110.58 | 1837.5 | –
282.15 K | 1110.43 | 1836.8 | –
282.4 K | 1110.28 | 1836.1 | –
282.65 K | 1110.13 | 1835.4 | –
282.9 K | 1109.98 | 1834.7 | –
283.15 K | 1109.83 | 1834 | –
283.4 K | 1109.68 | 1833.3 | –
283.65 K | 1109.53 | 1832.6 | –
283.9 K | 1109.38 | 1832 | –
284.15 K | 1109.22 | 1831.3 | –
284.4 K | 1109.07 | 1830.6 | –
284.65 K | 1108.92 | 1829.9 | –
284.9 K | 1108.77 | 1829.2 | –
285.15 K | 1108.62 | 1828.6 | –
285.4 K | 1108.47 | 1827.9 | –
285.65 K | 1108.32 | 1827.2 | –
285.9 K | 1108.17 | 1826.5 | –
286.15 K | 1108.02 | 1825.9 | –
286.4 K | 1107.86 | 1825.2 | –
286.65 K | 1107.71 | 1824.5 | –
286.9 K | 1107.56 | 1823.8 | –
287.15 K | 1107.41 | 1823.2 | –
287.4 K | 1107.26 | 1822.5 | –
287.65 K | 1107.11 | 1821.8 | –
287.9 K | 1106.95 | 1821.2 | –
288.15 K | 1106.8 | 1820.5 | 211.24
288.4 K | 1106.65 | 1819.9 | –
288.65 K | 1106.5 | 1819.2 | –
288.9 K | 1106.35 | 1818.6 | –
289.15 K | 1106.19 | 1817.9 | –
289.4 K | 1106.04 | 1817.3 | –
289.65 K | 1105.89 | 1816.6 | –
289.9 K | 1105.73 | 1816 | –
290.15 K | 1105.58 | 1815.3 | –
290.4 K | 1105.43 | 1814.7 | –
290.65 K | 1105.28 | 1814 | –
290.9 K | 1105.13 | 1813.4 | –
291.15 K | 1104.97 | 1812.7 | –
291.4 K | 1104.82 | 1812.1 | –
291.65 K | 1104.67 | 1811.4 | –
291.9 K | 1104.51 | 1810.8 | –
292.15 K | 1104.36 | 1810.1 | –
292.4 K | 1104.21 | 1809.5 | –
292.65 K | 1104.05 | 1808.8 | –
292.9 K | 1103.9 | 1808.2 | –
293.15 K | 1103.76 | 1807.5 | 145.8
293.4 K | 1103.61 | 1806.9 | –
293.65 K | 1103.46 | 1806.3 | –
293.9 K | 1103.32 | 1805.6 | –
294.15 K | 1103.17 | 1805 | –
294.4 K | 1103.02 | 1804.3 | –
294.65 K | 1102.88 | 1803.7 | –
294.9 K | 1102.73 | 1803.1 | –
295.15 K | 1102.59 | 1802.4 | –
295.4 K | 1102.44 | 1801.8 | –
295.65 K | 1102.29 | 1801.2 | –
295.9 K | 1102.14 | 1800.5 | –
296.15 K | 1102 | 1799.9 | –
296.4 K | 1101.85 | 1799.2 | –
296.65 K | 1101.7 | 1798.6 | –
296.9 K | 1101.56 | 1798 | –
297.15 K | 1101.41 | 1797.3 | –
297.4 K | 1101.26 | 1796.7 | –
297.65 K | 1101.11 | 1796 | –
297.9 K | 1100.97 | 1795.4 | –
298.15 K | 1100.83 | 1794.8 | 106.06
298.4 K | 1100.67 | 1794.1 | –
298.65 K | 1100.53 | 1793.5 | –
298.9 K | 1100.38 | 1792.9 | –
299.15 K | 1100.23 | 1792.2 | –
299.4 K | 1100.08 | 1791.6 | –
299.65 K | 1099.93 | 1791 | –
299.9 K | 1099.78 | 1790.3 | –
300.15 K | 1099.63 | 1789.7 | –
300.4 K | 1099.48 | 1789 | –
300.65 K | 1099.34 | 1788.4 | –
300.9 K | 1099.19 | 1787.8 | –
301.15 K | 1099.04 | 1787.1 | –
301.4 K | 1098.89 | 1786.5 | –
301.65 K | 1098.74 | 1785.8 | –
301.9 K | 1098.59 | 1785.2 | –
302.15 K | 1098.44 | 1784.6 | –
302.4 K | 1098.29 | 1783.9 | –
302.65 K | 1098.14 | 1783.3 | –
302.9 K | 1097.99 | 1782.6 | –
303.15 K | 1097.84 | 1782 | 78.7
303.4 K | 1097.69 | 1781.3 | –
303.65 K | 1097.54 | 1780.7 | –
303.9 K | 1097.4 | 1780.2 | –
304.15 K | 1097.25 | 1779.6 | –
304.4 K | 1097.1 | 1779 | –
304.65 K | 1096.95 | 1778.3 | –
304.91 K | 1096.79 | 1777.7 | –
305.15 K | 1096.64 | 1777 | –
305.4 K | 1096.49 | 1776.4 | –
305.65 K | 1096.34 | 1775.7 | –
305.9 K | 1096.19 | 1775.1 | –
306.15 K | 1096.04 | 1774.5 | –
306.4 K | 1095.89 | 1773.8 | –
306.65 K | 1095.74 | 1773.2 | –
306.9 K | 1095.59 | 1772.5 | –
307.15 K | 1095.44 | 1771.9 | –
307.4 K | 1095.29 | 1771.3 | –
307.65 K | 1095.14 | 1770.6 | –
307.9 K | 1094.98 | 1770 | –
308.15 K | – | – | 60.03
